The results in this text go back to ChEMBL document CHEMBL1123887, “Fluoro ketone containing peptides as inhibitors of human renin” (J Med Chem, 1987).

This experiment has as its target T1, Renin (Homo sapiens, UniProt P00797).
T1 sequence (P00797 whole entry): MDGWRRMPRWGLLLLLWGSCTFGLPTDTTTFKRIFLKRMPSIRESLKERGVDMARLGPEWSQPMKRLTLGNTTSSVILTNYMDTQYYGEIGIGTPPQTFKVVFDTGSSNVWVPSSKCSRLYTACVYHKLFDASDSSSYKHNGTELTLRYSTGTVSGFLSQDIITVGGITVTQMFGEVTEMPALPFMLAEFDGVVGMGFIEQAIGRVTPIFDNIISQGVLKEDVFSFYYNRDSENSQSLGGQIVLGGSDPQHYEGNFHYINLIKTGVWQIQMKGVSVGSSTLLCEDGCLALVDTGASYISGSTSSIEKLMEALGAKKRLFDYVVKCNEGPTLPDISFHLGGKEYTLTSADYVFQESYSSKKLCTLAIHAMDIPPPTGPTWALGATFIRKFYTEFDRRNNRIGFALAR
The experiment in a line: Compound was evaluated for inhibitory activity against human kidney renin. In kind it is tissue-based.

Numbered stars: 1 amine (or outer) side, 2 acyl side, 3 side chain; on linkers, the order of the positions; unused ones are H or OH. Square brackets hold non-standard residues; d marks the D form. Peptide text beside a SMILES is read from it. * marks the point of attachment. X2 = CC(C)C[C@H](N[*:1])[C@@H](O)C(F)(F)C(=O)[*:2]; X1 = CC(C)C[C@H](N[*:1])C(=O)C(F)(F)C(=O)[*:2]; X3 = CC(C)C[C@H](N[*:1])C(=O)CC(=O)[*:2]; Sta = CC(C)C[C@H](N)[C@@H](O)CC(=O)O; Boc = CC(C)(C)OC(=O)*

For `CC(C)C[C@H](NC(=O)C(F)(F)[C@H](O)[C@H](CC(C)C)NC(=O)[C@@H](/C=C/[C@H](Cc1ccccc1)NC(=O)OC(C)(C)C)Cc1ccccc1)C(=O)N[C@@H](Cc1ccccc1)C(N)=O`, the Ki (as a rule, a dissociation constant, usually derived from enzyme kinetics or from competition with a known ligand) amounted to 12 µM.
With `COC(=O)[C@@H](/C=C/[C@H](CC(C)C)NC(=O)C(F)(F)C(=O)[C@H](CC(C)C)NC(=O)[C@H](Cc1ccccc1)NC(=O)[C@H](Cc1ccccc1)NC(=O)OC(C)(C)C)Cc1ccccc1` the figure was 1.2 µM.
With `COC(=O)[C@@H](/C=C/[C@H](CC(C)C)NC(=O)C(F)(F)[C@H](O)[C@H](CC(C)C)NC(=O)[C@H](Cc1ccccc1)NC(=O)[C@H](Cc1ccccc1)NC(=O)OC(C)(C)C)Cc1ccccc1` the figure was 16 µM; with `CC(C)C[C@H](NC(=O)C[C@H](O)[C@H](CC(C)C)NC(=O)[C@H](Cc1ccccc1)NC(=O)[C@H](Cc1ccccc1)NC(=O)OC(C)(C)C)C(=O)N[C@@H](Cc1ccccc1)C(N)=O` (Boc-FF[Sta]LF-NH2), 0.052 µM; with `CC(C)C[C@H](NC(=O)C(F)(F)C(=O)[C@H](CC(C)C)NC(=O)[C@H](Cc1ccccc1)NC(=O)[C@H](Cc1ccccc1)NC(=O)OC(C)(C)C)C(=O)N[C@@H](Cc1ccccc1)C(N)=O` (Boc-FF[X1]LF-NH2), 0.007 µM.
The value for `CC(C)C[C@H](NC(=O)C(F)(F)[C@H](O)[C@H](CC(C)C)NC(=O)[C@H](Cc1ccccc1)NC(=O)[C@H](Cc1ccccc1)NC(=O)OC(C)(C)C)C(=O)N[C@@H](Cc1ccccc1)C(N)=O` (Boc-FF[X2]LF-NH2) was 0.12 µM; that for `CC(C)C[C@H](NC(=O)[C@H](Cc1ccccc1)NC(=O)[C@H](Cc1ccccc1)NC(=O)OC(C)(C)C)C(=O)CC(=O)N[C@@H](CC(C)C)C(=O)N[C@@H](Cc1ccccc1)C(N)=O` (Boc-FF[X3]LF-NH2) was 0.154 µM.
